{"source": "patent US20040097421A1", "about": "(priority 2000, published 2004)", "key": {"[1]": {"test_system": "U1285 (small cell lung cancer)", "experiment": "cells", "format": "cell-based", "conditions": "Homo sapiens, read-out: IC50 (μM), U1285"}, "[2]": {"test_system": "NCI-H125 (non-small cell lung cancer)", "experiment": "cells", "format": "cell-based", "conditions": "Homo sapiens, NCI-H125, read-out: IC50 (μM), NCI-H125"}, "[3]": {"test_system": "NCI-H611 (non-small cell lung cancer)", "experiment": "cells", "format": "cell-based", "conditions": "Homo sapiens, read-out: IC50 (μM), NCI-H611"}, "[4]": {"test_system": "U-1752 (non-small cell lung cancer)", "experiment": "cells", "format": "cell-based", "conditions": "Homo sapiens, read-out: IC50 (μM), U-1752"}, "[5]": {"test_system": "U1690 (small cell lung cancer)", "experiment": "cells", "format": "cell-based", "conditions": "Homo sapiens, read-out: IC50 (μM), U1690"}, "[6]": {"test_system": "U-1906E (small cell lung cancer)", "experiment": "cells", "format": "cell-based", "conditions": "Homo sapiens, read-out: IC50 (μM), U-1906E"}, "[7]": {"test_system": "CEM/S (leukemia CCRF-CEM)", "experiment": "cells", "format": "cell-based", "conditions": "Homo sapiens, 72 h, read-out: IC50 (μM), CEM/S"}, "[8]": {"test_system": "U1906L (small cell lung cancer)", "experiment": "cells", "format": "cell-based", "conditions": "Homo sapiens, read-out: IC50 (μM), U1906L"}, "[9]": {"test_system": "U-1568 (non-small cell lung cancer)", "experiment": "cells", "format": "cell-based", "conditions": "Homo sapiens, read-out: IC50 (μM), U-1568"}, "[10]": {"test_system": "8226S (myeloma RPMI 8226)", "experiment": "cells", "format": "cell-based, human", "conditions": "Homo sapiens, RPMI-8226, 72 h, read-out: IC50 (μM), 8226S"}, "[11]": {"test_system": "panel of ten human tumour cell lines", "format": "cell-based"}}}
{"smiles": "CC[C@@]1(O)C(=O)OCc2c1cc1n(c2=O)Cc2cc3c(CN(C)C)c(O)ccc3nc2-1", "note": "[Topotecan, topotecan]", "values": [{"measurement": "IC50", "setting": "[1]", "value": 0.17, "unit": "µM"}, {"measurement": "IC50", "setting": "[2]", "value": "≥ 236", "unit": "µM"}, {"measurement": "IC50", "setting": "[3]", "value": "≥ 236", "unit": "µM"}, {"measurement": "IC50", "setting": "[4]", "value": 28, "unit": "µM"}, {"measurement": "IC50", "setting": "[5]", "value": 0.92, "unit": "µM"}, {"measurement": "IC50", "setting": "[6]", "value": 0.08, "unit": "µM"}, {"measurement": "IC50", "setting": "[7]", "value": 0.02, "unit": "µM"}, {"measurement": "IC50", "setting": "[8]", "value": 0.12, "unit": "µM"}, {"measurement": "IC50", "setting": "[9]", "value": 115, "unit": "µM"}, {"measurement": "IC50", "setting": "[10]", "value": 0.87, "unit": "µM"}, {"measurement": "IC50 (μM), MEAN", "setting": "[11]", "value": 20.0, "unit": "µM"}]}
